Among the data in patent US20250262201A1, “COMPOUNDS AND METHODS USEFUL FOR STABILIZING PHENYLALANINE HYDROXYLASE MUTATIONS” (Agios Pharmaceuticals, Inc., priority 2022, published 2025) are AC50 values, retold here.

Each structure is given as a SMILES string.

The target of the assay is T1, human PAH with the R408W mutation (Homo sapiens, UniProt P00439, R408W).
T1 construct: expressed in transfected cells
T1 sequence (P00439 1-452 R408W): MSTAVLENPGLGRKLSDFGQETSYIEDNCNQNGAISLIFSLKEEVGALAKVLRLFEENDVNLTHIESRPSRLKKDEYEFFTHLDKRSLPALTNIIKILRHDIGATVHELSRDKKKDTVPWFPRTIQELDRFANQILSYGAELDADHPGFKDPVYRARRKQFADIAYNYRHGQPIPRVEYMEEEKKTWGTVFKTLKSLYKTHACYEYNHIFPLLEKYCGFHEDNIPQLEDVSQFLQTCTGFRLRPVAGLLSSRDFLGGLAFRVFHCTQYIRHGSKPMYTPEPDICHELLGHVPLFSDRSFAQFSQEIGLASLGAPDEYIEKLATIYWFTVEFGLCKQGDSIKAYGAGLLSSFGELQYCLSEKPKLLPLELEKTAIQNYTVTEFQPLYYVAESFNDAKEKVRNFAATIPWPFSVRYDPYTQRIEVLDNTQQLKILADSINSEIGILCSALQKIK
The assay can be described thus: Cell Based Phenylalanine Flux Assay. Conditions: A375 cells expressing human R408W PAH; 24 hrs compound incubation; 13C-Tyrosine by LC-MS; average where tested multiple times; read-out: AC50.
Regarding `O=C(CCc1nccs1)N1CCc2[nH]cnc2[C@H]1c1ncc2ccccc2n1` [Example 273, (S)-1-(4-(quinazolin-2-yl)-6,7-dihydro-1H-imidazo[4,5-c]pyridin-5(4H)-yl)-3-(thiazol-2-yl)propan-1-one], the AC50 (in general, the concentration giving half of the maximal activity seen) is less than 500 nM.

For the compound `O=C(CCc1nccs1)N1CCc2[nH]cnc2[C@@H]1c1ncc2ccccc2n1` [Example 274, (R)-1-(4-(quinazolin-2-yl)-6,7-dihydro-1H-imidazo[4,5-c]pyridin-5(4H)-yl)-3-(thiazol-2-yl)propan-1-one], the AC50 is greater than 5000 nM.

In the case of `Cn1nc(C(F)F)nc1C(=O)N1CCc2[nH]cnc2[C@H]1c1ncc2ccccc2n1` [Example 276, (S)-(3-(difluoromethyl)-1-methyl-1H-1,2,4-triazol-5-yl)(4-(quinazolin-2-yl)-6,7-dihydro-1H-imidazo[4,5-c]pyridin-5(4H)-yl)methanone], the half-maximal activity concentration (AC50) is less than 500 nM.

For `O=C(c1oc(-c2ccc(C(F)(F)F)cn2)nc1C(F)F)N1CCc2[nH]cnc2[C@H]1c1ncc2ccccc2n1` [Example 278, (S)-(4-(difluoromethyl)-2-(5-(trifluoromethyl)pyridin-2-yl)oxazol-5-yl)(4-(quinazolin-2-yl)-6,7-dihydro-1H-imidazo[4,5-c]pyridin-5(4H)-yl)methanone], the half-maximal activity concentration (AC50) is less than 500 nM.

`O=C(c1oc(N2CCC(F)CC2)nc1C(F)F)N1CCc2[nH]cnc2[C@H]1c1ncc2ccccc2n1` [Example 280, (S)-(4-(difluoromethyl)-2-(4-fluoropiperidin-1-yl)oxazol-5-yl)(4-(quinazolin-2-yl)-6,7-dihydro-1H-imidazo[4,5-c]pyridin-5(4H)-yl)methanone]: the half-maximal activity concentration (AC50) is less than 500 nM.

Take `Cn1cncc1-c1nc(C(F)F)c(C(=O)N2CCc3[nH]cnc3[C@@H]2c2ncc3ccccc3n2)o1` [Example 281, (R)-(4-(difluoromethyl)-2-(1-methyl-1H-imidazol-5-yl)oxazol-5-yl)(4-(quinazolin-2-yl)-6,7-dihydro-1H-imidazo[4,5-c]pyridin-5(4H)-yl)methanone]: the half-maximal activity concentration (AC50) fell in the range of 500 to 1000 nM.

On to `O=C(c1cnco1)N1CCc2[nH]cnc2[C@H]1c1ccc2ccccc2c1` [Example 283, (R)-(4-(naphthalen-2-yl)-6,7-dihydro-1H-imidazo[4,5-c]pyridin-5(4H)-yl)(oxazol-5-yl)methanone], for which the AC50 was in the range of 500 to 1000 nM.

Take `O=C(c1cnc(-c2ccccn2)s1)N1CCc2[nH]cnc2[C@H]1c1cc2ccccc2cn1` [Example 300, (R)-(4-(isoquinolin-3-yl)-6,7-dihydro-1H-imidazo[4,5-c]pyridin-5(4H)-yl)(2-(pyridin-2-yl)thiazol-5-yl)methanone]: the concentration at half-maximal activity (AC50) was less than 500 nM.

Consider `O=C(c1cnc(-c2ccccn2)s1)N1CCc2[nH]cnc2[C@@H]1c1cc2ccccc2cn1` [Example 301, (S)-(4-(isoquinolin-3-yl)-6,7-dihydro-1H-imidazo[4,5-c]pyridin-5(4H)-yl)(2-(pyridin-2-yl)thiazol-5-yl)methanone], for which the AC50 is greater than 5000 nM.

On to `Cn1cc(-c2ncc(C(=O)N3CCc4[nH]cnc4[C@H]3c3cc4ccccc4cn3)s2)cn1` [Example 302, (R)-(4-(isoquinolin-3-yl)-6,7-dihydro-1H-imidazo[4,5-c]pyridin-5(4H)-yl)(2-(1-methyl-1H-pyrazol-4-yl)thiazol-5-yl)methanone], for which the AC50 is less than 500 nM.

Turning to `Cn1cc(-c2ncc(C(=O)N3CCc4[nH]cnc4[C@@H]3c3cc4ccccc4cn3)s2)cn1` [Example 303, (S)-(4-(isoquinolin-3-yl)-6,7-dihydro-1H-imidazo[4,5-c]pyridin-5(4H)-yl)(2-(1-methyl-1H-pyrazol-4-yl)thiazol-5-yl)methanone], the AC50 was greater than 5000 nM.

On to `O=C(c1cnc(-c2cnn(CC(F)(F)F)c2)o1)N1CCc2[nH]cnc2[C@@H]1c1cc2ccccc2cn1` [Example 304, (S)-(4-(isoquinolin-3-yl)-6,7-dihydro-1H-imidazo[4,5-c]pyridin-5(4H)-yl)(2-(1-(2,2,2-trifluoroethyl)-1H-pyrazol-4-yl)oxazol-5-yl)methanone], for which the AC50 is greater than 5000 nM.

For the compound `O=C(c1cnc(-c2cnn(CC(F)(F)F)c2)o1)N1CCc2[nH]cnc2[C@H]1c1cc2ccccc2cn1` [Example 305, (R)-(4-(isoquinolin-3-yl)-6,7-dihydro-1H-imidazo[4,5-c]pyridin-5(4H)-yl)(2-(1-(2,2,2-trifluoroethyl)-1H-pyrazol-4-yl)oxazol-5-yl)methanone], the AC50 is less than 500 nM.

In the case of `O=C(c1cnc(-c2cnn(CC(F)(F)F)c2)s1)N1CCc2[nH]cnc2[C@H]1c1cc2ccccc2cn1` [Example 306, (R)-(4-(isoquinolin-3-yl)-6,7-dihydro-1H-imidazo[4,5-c]pyridin-5(4H)-yl)(2-(1-(2,2,2-trifluoroethyl)-1H-pyrazol-4-yl)thiazol-5-yl)methanone], the AC50 fell in the range of 500 to 1000 nM.

With `O=C(c1cnc(-c2cnn(CC(F)(F)F)c2)s1)N1CCc2[nH]cnc2[C@@H]1c1cc2ccccc2cn1` [Example 307, (S)-(4-(isoquinolin-3-yl)-6,7-dihydro-1H-imidazo[4,5-c]pyridin-5(4H)-yl)(2-(1-(2,2,2-trifluoroethyl)-1H-pyrazol-4-yl)thiazol-5-yl)methanone], the AC50 was greater than 5000 nM.

In the case of `O=C(c1cnc(-c2ccccn2)o1)N1CCc2[nH]cnc2[C@H]1c1cc2ccccc2cn1` [Example 308, (R)-(4-(isoquinolin-3-yl)-6,7-dihydro-1H-imidazo[4,5-c]pyridin-5(4H)-yl)(2-(pyridin-2-yl)oxazol-5-yl)methanone], the half-maximal activity concentration (AC50) was less than 500 nM.

Consider `O=C(c1cnc(-c2ccccn2)o1)N1CCc2[nH]cnc2[C@@H]1c1cc2ccccc2cn1` [Example 309, (S)-(4-(isoquinolin-3-yl)-6,7-dihydro-1H-imidazo[4,5-c]pyridin-5(4H)-yl)(2-(pyridin-2-yl)oxazol-5-yl)methanone], for which the half-maximal activity concentration (AC50) was greater than 5000 nM.

With `Cn1cc(-c2ncc(C(=O)N3CCc4[nH]cnc4[C@H]3c3cc4ccccc4cn3)o2)cn1` [Example 311, (R)-(4-(isoquinolin-3-yl)-6,7-dihydro-1H-imidazo[4,5-c]pyridin-5(4H)-yl)(2-(1-methyl-1H-pyrazol-4-yl)oxazol-5-yl)methanone], the AC50 is less than 500 nM.

For `O=C(c1cnc(-c2ccc(F)cn2)s1)N1CCc2[nH]cnc2[C@@H]1c1cc2ccccc2cn1` [Example 313, (S)-(2-(5-fluoropyridin-2-yl)thiazol-5-yl)(4-(isoquinolin-3-yl)-6,7-dihydro-1H-imidazo[4,5-c]pyridin-5(4H)-yl)methanone], the AC50 lay within 1000 to 5000 nM.

Turning to `COCc1ccc2c(C(=O)N3CCc4[nH]cnc4[C@H]3c3cc4ccccc4cn3)cnn2c1` [Example 314, (R)-(4-(isoquinolin-3-yl)-6,7-dihydro-1H-imidazo[4,5-c]pyridin-5(4H)-yl)(6-(methoxymethyl)pyrazolo[1,5-a]pyridin-3-yl)methanone], the AC50 was less than 500 nM.

For `COCc1ccc2c(C(=O)N3CCc4[nH]cnc4[C@@H]3c3cc4ccccc4cn3)cnn2c1` [Example 315, (S)-(4-(isoquinolin-3-yl)-6,7-dihydro-1H-imidazo[4,5-c]pyridin-5(4H)-yl)(6-(methoxymethyl)pyrazolo[1,5-a]pyridin-3-yl)methanone], the concentration at half-maximal activity (AC50) was greater than 5000 nM.

Regarding `CC(C)(C)c1ncc(C(=O)N2CCc3[nH]cnc3[C@H]2c2cc3ccccc3cn2)s1` [Example 316, (R)-(2-(tert-butyl)thiazol-5-yl)(4-(isoquinolin-3-yl)-6,7-dihydro-1H-imidazo[4,5-c]pyridin-5(4H)-yl)methanone], the AC50 was less than 500 nM.

On to `CC(C)(C)c1ncc(C(=O)N2CCc3[nH]cnc3[C@@H]2c2cc3ccccc3cn2)s1` [Example 317, (S)-(2-(tert-butyl)thiazol-5-yl)(4-(isoquinolin-3-yl)-6,7-dihydro-1H-imidazo[4,5-c]pyridin-5(4H)-yl)methanone], for which the AC50 was greater than 5000 nM.

For `Cc1nnc(C(=O)N2CCc3[nH]cnc3[C@H]2c2cc3ccccc3cn2)o1` [Example 318, (R)-(4-(isoquinolin-3-yl)-6,7-dihydro-1H-imidazo[4,5-c]pyridin-5(4H)-yl)(5-methyl-1,3,4-oxadiazol-2-yl)methanone], the concentration at half-maximal activity (AC50) is less than 500 nM.

`Cc1nnc(C(=O)N2CCc3[nH]cnc3[C@@H]2c2cc3ccccc3cn2)o1` [Example 319, (S)-(4-(isoquinolin-3-yl)-6,7-dihydro-1H-imidazo[4,5-c]pyridin-5(4H)-yl)(5-methyl-1,3,4-oxadiazol-2-yl)methanone]: the concentration at half-maximal activity (AC50) was greater than 5000 nM.

Consider `O=C(c1cnco1)N1CCc2[nH]cnc2[C@H]1c1cc2ccccc2cn1` [Example 320, (R)-(4-(isoquinolin-3-yl)-6,7-dihydro-1H-imidazo[4,5-c]pyridin-5(4H)-yl)(oxazol-5-yl)methanone], for which the AC50 is less than 500 nM.

Take `O=C(c1cnco1)N1CCc2[nH]cnc2[C@@H]1c1cc2ccccc2cn1` [Example 321, (S)-(4-(isoquinolin-3-yl)-6,7-dihydro-1H-imidazo[4,5-c]pyridin-5(4H)-yl)(oxazol-5-yl)methanone]: the AC50 lay in the range of 1000 to 5000 nM.

On to `Cn1cc(-c2nnc(C(=O)N3CCc4[nH]cnc4[C@H]3c3cc4ccccc4cn3)o2)cn1` [Example 322, (R)-(4-(isoquinolin-3-yl)-6,7-dihydro-1H-imidazo[4,5-c]pyridin-5(4H)-yl)(5-(1-methyl-1H-pyrazol-4-yl)-1,3,4-oxadiazol-2-yl)methanone], for which the half-maximal activity concentration (AC50) was less than 500 nM.
